The record followed here is patent publication US20230277534A1 (Plexxikon Inc., priority 2011, published 2023).

For one assay, the target named is B-Raf V600E (Homo sapiens (Human), UniProt P15056, V600E). Description: B-Raf V600E kinase biochemical activity assay (AlphaScreen, biotin-MEK1 substrate). As to conditions: 100 μM ATP. As to the method:
Assays for biochemical and cell based activity are known in the art, for example, as described in PCT publication WO 2007/002433, the disclosure of which is hereby incorporated by reference as it relates to such assays. For example, the biochemical activity IC50 values are determined with respect to inhibition of B-Raf V600E kinase activity or p-Erk kinase activity, where inhibition of phosphorylation of a peptide substrate is measured as a function of compound concentration. Compounds to be tested are diluted in dimethyl sulfoxide to a concentration of 0.1 mM. These are serially diluted 15 μL into 30 μL of dimethyl sulfoxide seven times in 96 well plates for a total of 8 dilution points, and for each dilution point 1 μL is added to a well of an assay plate. Plates are prepared such that each well in a 384 well plate contains 1 μL of compound in 10 μL volume with 0.1 ng Raf enzyme (i.e. any of B-Raf, c-Raf-1 or B-Raf V600E, Upstate Biotechnology or prepared by methods known to one of skill in the art), 50 mM HEPES, pH 7.0, 50 mM NaCl, 2 mM MgCl2, 1 mM MnCl2, 0.01% Tween-20, 1 mM DTT, and 100 nM biotin-MEK1 as substrate. The reaction is started with addition of 10 μL of 200 μM ATP (i.e. final 100 μM ATP). After incubation of the kinase reaction for 45 minutes at room temperature, 5 μL/well of Stop Solution is added (25 mM Hepes pH 7.5, 100 mM EDTA, 0.01% BSA with donor beads (Streptavidin coated beads, Perkin Elmer), acceptor beads (Protein A coated, Perkin Elmer), and anti phosphor MEK1/2 antibody (CellSignal), each at final concentration 10 μg/mL). The plates are incubated for 3 hours at room temperature and read on Envision reader (Perkin Elmer). Phosphorylation of Mek1 results in binding of the anti-phosphor-MEK1/2antibody and association of the donor and acceptor beads such that signal correlates with kinase activity. The signal vs. compound concentration is used to determine the IC50.
(Bead proximity is the source of the signal in Alpha formats.)

Assay [1] relates to COLO205 colon adenocarcinoma cells (B-Raf V600E mutation). Description: COLO205 cell growth inhibition (ATPlite). Type of assay: cell-based. The settings on record: Homo sapiens, COLO 205, 72 h, 3 days. The method, then: Compounds are assessed in a variety of cell based assays.
On day 1, cells are counted, then centrifuged in a conical tube for 5 minutes at 1000 rpm.
On day 2, compound at a maximum concentration of 5 mM is serially diluted 1:3 (e.g. 10 μL with 30 μL dimethyl sulfoxide) for a total of 8 point titration with DMSO as a control. A 1 μL aliquot of each dilution point and control is added to 249 μL growth media and 50 μL is added to a well containing cells, providing 10 μM compound at the maximum concentration point. The cells are incubated for 3 days at 37° C. in 5% CO2.
ATPlite is added 25 μL to each well, shake for 2 minutes, and the cells are incubated at room temperature for 10 minutes, then luminescence is read on Safire reader. The measured luminescence correlates directly with cell number, such that the reading as a function of compound concentration is used to determine the IC50 value.

B-Raf V600E, sequence (P15056 whole entry V600E): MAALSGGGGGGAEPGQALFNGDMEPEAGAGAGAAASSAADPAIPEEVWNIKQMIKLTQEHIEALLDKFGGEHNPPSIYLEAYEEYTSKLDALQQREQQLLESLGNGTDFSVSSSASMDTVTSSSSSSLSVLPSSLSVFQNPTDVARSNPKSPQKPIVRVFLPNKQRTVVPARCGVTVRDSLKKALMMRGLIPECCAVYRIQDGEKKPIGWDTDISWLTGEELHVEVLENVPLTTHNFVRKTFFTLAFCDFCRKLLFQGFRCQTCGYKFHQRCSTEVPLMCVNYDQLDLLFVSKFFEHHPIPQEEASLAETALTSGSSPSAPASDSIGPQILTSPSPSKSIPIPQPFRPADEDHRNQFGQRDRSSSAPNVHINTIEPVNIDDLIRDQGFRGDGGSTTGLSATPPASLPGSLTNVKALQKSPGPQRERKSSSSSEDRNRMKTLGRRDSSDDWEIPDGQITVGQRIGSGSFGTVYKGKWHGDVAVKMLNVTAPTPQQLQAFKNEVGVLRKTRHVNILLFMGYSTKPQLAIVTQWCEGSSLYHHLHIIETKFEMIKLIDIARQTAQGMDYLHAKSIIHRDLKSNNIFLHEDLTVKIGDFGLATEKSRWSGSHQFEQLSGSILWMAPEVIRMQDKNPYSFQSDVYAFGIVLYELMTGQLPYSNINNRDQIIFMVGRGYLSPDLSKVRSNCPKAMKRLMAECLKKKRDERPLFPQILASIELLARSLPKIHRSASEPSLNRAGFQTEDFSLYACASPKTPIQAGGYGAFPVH

By IC50 is commonly meant the concentration at which inhibition is half-maximal. A high value points to weaker potency. In the case of `COc1ncc(-c2cnc3[nH]cc(C(=O)c4cccc(NS(=O)(=O)N5CCCC5C)c4F)c3c2)cn1` (stereo not drawn) [Compound P-0074, N-[2-fluoro-3-[5-(2-methoxypyrimidin-5-yl)-1H-pyrrolo[2,3-b]pyridine-3-carbonyl]phenyl]-2-methyl-pyrrolidine-1-sulfonamide], the IC50 at B-Raf V600E was over 0.1 µM; in assay [1] it was over 1 µM.
Regarding `CCN(C)S(=O)(=O)Nc1cccc(C(=O)c2c[nH]c3ncc(-c4ccc(N(C)C)nc4)cc23)c1F` [Compound P-0076, 5-[6-(dimethylamino)-3-pyridyl]-3-[3-[[ethyl(methyl)sulfamoyl]amino]-2-fluoro-benzoyl]-1H-pyrrolo[2,3-b]pyridine], the IC50 at B-Raf V600E was under 0.1 µM; in assay [1], under 1 µM.
In the case of `CCN(C)S(=O)(=O)Nc1cccc(C(=O)c2c[nH]c3ncc(-c4cnc(NC5CC5)nc4)cc23)c1F` [Compound P-0077, 5-[2-(cyclopropylamino)pyrimidin-5-yl]-3-[3-[[ethyl(methyl)sulfamoyl]amino]-2-fluoro-benzoyl]-1H-pyrrolo[2,3-b]pyridine], the IC50 on B-Raf V600E was under 0.1 µM; in assay [1] it was under 1 µM.
Turning to `CCCN(C)S(=O)(=O)Nc1ccc(F)c(C(=O)c2c[nH]c3ncc(-c4cnc(C5CC5)nc4)cc23)c1F` [Compound P-0078, 5-(2-cyclopropylpyrimidin-5-yl)-3-[2,6-difluoro-3-[[methyl(propyl)sulfamoyl]amino]benzoyl]-1H-pyrrolo[2,3-b]pyridine], the values for the 50% inhibitory concentration (IC50) (against B-Raf V600E; in assay [1]) were under 0.1 µM and over 1 µM, respectively.
The matching figures for `COCCN(C)S(=O)(=O)Nc1cccc(C(=O)c2c[nH]c3ncc(-c4ccc(C5(C#N)CC5)cc4)cc23)c1F` [Compound P-0080, 5-[4-(1-cyanocyclopropyl)phenyl]-3-[2-fluoro-3-[[2-methoxyethyl(methyl)sulfamoyl]amino]benzoyl]-1H-pyrrolo[2,3-b]pyridine]: under 0.1 µM and over 1 µM.
The like results for `COCCN(C)S(=O)(=O)Nc1cccc(C(=O)c2c[nH]c3ncc(-c4cnc(NC5CC5)nc4)cc23)c1F` [Compound P-0081, 5-[2-(cyclopropylamino)pyrimidin-5-yl]-3-[2-fluoro-3-[[2-methoxyethyl(methyl)sulfamoyl]amino]benzoyl]-1H-pyrrolo[2,3-b]pyridine] were, in that order, under 0.1 µM and under 1 µM.
The like results for `CN(CC1CC1)S(=O)(=O)Nc1cccc(C(=O)c2c[nH]c3ncc(-c4cnc(C5CC5)nc4)cc23)c1F` [Compound P-0084, 3-[3-[[cyclopropylmethyl(methyl)sulfamoyl]amino]-2-fluoro-benzoyl]-5-(2-cyclopropylpyrimidin-5-yl)-1H-pyrrolo[2,3-b]pyridine] were, in that order, under 0.1 µM and under 1 µM.
For `COCCN(C)S(=O)(=O)Nc1cccc(C(=O)c2c[nH]c3ncc(-c4cnc(C5CC5)nc4)cc23)c1F` [Compound P-0085, 5-(2-cyclopropylpyrimidin-5-yl)-3-[2-fluoro-3-[[2-methoxyethyl(methyl)sulfamoyl]amino]benzoyl]-1H-pyrrolo[2,3-b]pyridine], the half-maximal inhibitory concentration (IC50) against B-Raf V600E is under 0.1 µM; in assay [1], over 1 µM.
The like results for `COc1ncc(-c2cnc3[nH]cc(C(=O)c4cccc(NS(=O)(=O)N5CC(F)(F)C5)c4F)c3c2)cn1` [Compound P-0088, 3,3-difluoro-N-[2-fluoro-3-[5-(2-methoxypyrimidin-5-yl)-1H-pyrrolo[2,3-b]pyridine-3-carbonyl]phenyl]azetidine-1-sulfonamide] were, in that order, under 0.1 µM and over 1 µM.
On to `CCN(C)S(=O)(=O)Nc1cccc(C(=O)c2c[nH]c3ncnc(N[C@@H](C)C4CC4)c23)c1F` [Compound P-0089, 4-[[(1S)-1-cyclopropylethyl]amino]-5-[3-[[ethyl(methyl)sulfamoyl]amino]-2-fluoro-benzoyl]-7H-pyrrolo[2,3-d]pyrimidine], for which the IC50 against B-Raf V600E is under 0.1 µM; in assay [1] it was over 1 µM.
As to `N#Cc1ccc(-c2cnc3[nH]cc(C(=O)c4cccc(NS(=O)(=O)N5CCCC5)c4F)c3c2)cc1` [Compound P-0090, N-[3-[5-(4-cyanophenyl)-1H-pyrrolo[2,3-b]pyridine-3-carbonyl]-2-fluoro-phenyl]pyrrolidine-1-sulfonamide], the results for the IC50 (at B-Raf V600E; in assay [1]) were under 0.1 µM and under 1 µM, respectively.
As for `Cc1ncc(-c2cnc3[nH]cc(C(=O)c4cccc(NS(=O)(=O)N5CCCC5)c4F)c3c2)cn1` [Compound P-0092, N-[2-fluoro-3-[5-(2-methylpyrimidin-5-yl)-1H-pyrrolo[2,3-b]pyridine-3-carbonyl]phenyl]pyrrolidine-1-sulfonamide], the IC50 was under 0.1 µM against B-Raf V600E and under 1 µM in assay [1].
The like results for `N#Cc1cncc(-c2cnc3[nH]cc(C(=O)c4cccc(NS(=O)(=O)N5CCCC5)c4F)c3c2)c1` [Compound P-0093, N-[3-[5-(5-cyano-3-pyridyl)-1H-pyrrolo[2,3-b]pyridine-3-carbonyl]-2-fluoro-phenyl]pyrrolidine-1-sulfonamide] were, in that order, under 0.1 µM and under 1 µM.
Take `N#Cc1ccc(-c2cnc3[nH]cc(C(=O)c4cccc(NS(=O)(=O)N5CCCC5)c4F)c3c2)cn1` [Compound P-0094, N-[3-[5-(6-cyano-3-pyridyl)-1H-pyrrolo[2,3-b]pyridine-3-carbonyl]-2-fluoro-phenyl]pyrrolidine-1-sulfonamide]: the IC50 at B-Raf V600E is under 0.1 µM; in assay [1], under 1 µM.
The like results for `O=C(c1cccc(NS(=O)(=O)N2CCCC2)c1F)c1c[nH]c2ncc(-c3ccc(C(F)(F)F)nc3)cc12` [Compound P-0095, N-[2-fluoro-3-[5-[6-(trifluoromethyl)-3-pyridyl]-1H-pyrrolo[2,3-b]pyridine-3-carbonyl]phenyl]pyrrolidine-1-sulfonamide] were, in that order, under 0.1 µM and under 1 µM.
The matching figures for `Cc1ncc(-c2cnc3[nH]cc(C(=O)c4cccc(NS(=O)(=O)N(C)C)c4F)c3c2)cn1` [Compound P-0097, 3-[3-(dimethylsulfamoylamino)-2-fluoro-benzoyl]-5-(2-methylpyrimidin-5-yl)-1H-pyrrolo[2,3-b]pyridine]: under 0.1 µM and under 1 µM.
Take `CN(C)S(=O)(=O)Nc1cccc(C(=O)c2c[nH]c3ncc(-c4cncc(C#N)c4)cc23)c1F` [Compound P-0098, 5-(5-cyano-3-pyridyl)-3-[3-(dimethylsulfamoylamino)-2-fluoro-benzoyl]-1H-pyrrolo[2,3-b]pyridine]: the IC50 was under 0.1 µM against B-Raf V600E and under 1 µM in assay [1].
For `CN(C)S(=O)(=O)Nc1cccc(C(=O)c2c[nH]c3ncc(-c4ccc(C#N)nc4)cc23)c1F` [Compound P-0099, 5-(6-cyano-3-pyridyl)-3-[3-(dimethylsulfamoylamino)-2-fluoro-benzoyl]-1H-pyrrolo[2,3-b]pyridine], the IC50 at B-Raf V600E is under 0.1 µM; in assay [1], over 1 µM.
Consider `CCN(C)S(=O)(=O)Nc1cccc(C(=O)c2c[nH]c3ncc(-c4cnc(C#N)nc4)cc23)c1F` [Compound P-0100, 5-(2-cyanopyrimidin-5-yl)-3-[3-[[ethyl(methyl)sulfamoyl]amino]-2-fluoro-benzoyl]-1H-pyrrolo[2,3-b]pyridine], for which the results for the IC50 (at B-Raf V600E; in assay [1]) were under 0.1 µM and over 1 µM, respectively.
The matching figures for `CCN(C)S(=O)(=O)Nc1cccc(C(=O)c2c[nH]c3ncc(-c4cncc(C#N)c4)cc23)c1F` [Compound P-0101, 5-(5-cyano-3-pyridyl)-3-[3-[[ethyl(methyl)sulfamoyl]amino]-2-fluoro-benzoyl]-1H-pyrrolo[2,3-b]pyridine]: under 0.1 µM and over 1 µM.
For the compound `CCN(C)S(=O)(=O)Nc1cccc(C(=O)c2c[nH]c3ncc(-c4ccc(C#N)nc4)cc23)c1F` [Compound P-0102, 5-(6-cyano-3-pyridyl)-3-[3-[[ethyl(methyl)sulfamoyl]amino]-2-fluoro-benzoyl]-1H-pyrrolo[2,3-b]pyridine], the IC50 against B-Raf V600E is under 0.1 µM; in assay [1], over 1 µM.
